Laboratory results: patent US20260102418A1, “An anti-influenza virus derivative and uses thereof” (Shijiazhuang Discovery Medicine Technology Co., Ltd., priority 2022, published 2026)
Entries after “also recorded” stand apart in the source; their conditions may differ. Like-named read-outs stand apart in the source and are kept apart here.

Assays:
[1] = test system: influenza virus (A/HPB/359/95 (H3N2))
in vitro = conditions: dog
[2] = test system: influenza virus (A/HPB/359/95 (H3N2)); assay: organism not typed; conditions: MDCK, read-out: Anti-IAV EC50
A/WSN/33 (H1N1) = assay: Antiviral CPE assay in MDCK, other influenza strains; assay type: cell-based, influenza A virus (IAV); conditions: Influenza A virus, CPE method
A/PR/8/34 (H1N1) (PR8) = assay: as above; assay type: cell-based, influenza A virus (IAV); conditions: Influenza A virus, CPE method
[3] = test system: B/Massachusetts/2/2012 (BY-3); assay: as above; assay type: cell-based; conditions: Influenza B virus
[4] = test system: B/Beijing-Haidian/1386/2013 (BV); assay: as above; assay type: cell-based; conditions: Influenza B virus, CPE method
A/PR/8/34 (H1N1) virus = assay: Virus titer test and histopathological examination in influenza virus mouse model; assay type: in vivo, C57BL/6J mice; conditions: for lung tissue pathology examination: left lung 5 days after infection
Procedure: Fifteen C57BL/6J mice (female, 8 weeks, 18-20 g) were divided into 5 groups (group A, group B, group C, group D and group E), 3 in each group. After intranasal inoculation with a semi-lethal dose of A/PR/8/34 (H1N1) virus, group A/group B/group C were respectively given intragastric administration of test drugs (group A: DS1494; group B: DS1833; group C: M42, all suspended in 1% methylcellulose solution, and the dosage of each group was 2 mg/kg), group D was given oral gavage with the same volume of 1% methylcellulose solution, and group E was given intraperitoneal injection of test drug DS1835 (the dosage was 1.4 mg/kg, dissolved in physiological saline), and each group was given drug administration once a day. Lung tissue samples were collected 5 days after infection, the left lung was examined for pathology, and the right lung was homogenized for TCID50 determination.

MDCK cells = assay: Cytotoxicity test in MDCK cells (CPE method, 72 hours); conditions: read-out: TC50 in MDCK; MDCK cells, 72 hours, CPE method
[5] = as above; conditions: dog
[6] = PR8 = A/Puerto Rico/8/1934(H1N1), MDCK
[7] = HD = B/Beijing-Haidian/1386/2013 (BV)
[8] = 2 mg/kg intragastric once a day

Row | Molecule | CC50 (in vitro) | EC50 [2] | other results
1 | O=C1c2c(O)c(=O)ccn2N([C@@H]2c3ccccc3[Se]Cc3c2ccc(F)c3F)[C@@H]2COC3(CC3)CN12 [DS1491] | > 20000 nM | 0.2 ± 0.01 nM | therapeutic index (TC50/EC50) [1]: higher therapeutic index
2 | [2H]C([2H])([2H])OC(=O)OCOc1c2n(ccc1=O)N([C@@H]1c3ccccc3SCc3c1ccc(F)c3F)[C@@H]1COC3(CC3)CN1C2=O [DS1837] |  | 0.65 ± 0.03 nM | EC50 (A/WSN/33 (H1N1)): 0.00136 ± 0.00022 µM; EC50 (A/PR/8/34 (H1N1) (PR8); [6]): 0.00126 ± 0.00047 µM; EC50 ([3]; MDCK): 0.00588 ± 0.00091 µM; EC50 [4, 7]: 0.00565 ± 0.00073 µM; CC50 at 72 h (in vitro): > 20000 nM
3 | C[C@@]1(N2[C@@H]3COC4(CC4)CN3C(=O)c3c(OCOP(=O)(O)O)c(=O)ccn32)c2ccccc2[Se]Cc2c1ccc(F)c2F [DS1499] | > 20000 nM | 0.29 ± 0.02 nM | 
4 | [2H][C@@]1(N2[C@@H]3COC4(CC4)CN3C(=O)c3c(OP(=O)(O)O)c(=O)ccn32)c2ccccc2[Se]Cc2c1ccc(F)c2F [DS14911] | > 20000 nM | 0.19 ± 0.03 nM | 
5 | NC(=O)c1ncn([C@@H]2O[C@H](CO)[C@@H](O)[C@H]2O)n1 [Ribavirin, reference compound] |  |  | EC50 (A/WSN/33 (H1N1); Ribavirin in μM): 27.2 ± 2.79 µM; EC50 (A/PR/8/34 (H1N1) (PR8); PR8, MDCK, Ribavirin in μM): 29.6 ± 3.11 µM; EC50 ([3]; BY-3, MDCK, CPE method, Ribavirin in μM, read-out: EC50): 33.1 ± 3.29 µM; EC50 ([4]; HD, Ribavirin in μM): 34.5 ± 4.85 µM
6 | [2H][C@@]1(N2[C@@H]3COC4(CC4)CN3C(=O)c3c(O)c(=O)ccn32)c2ccccc2[Se]Cc2c1ccc(F)c2F [DS1492] | > 20000 nM | 0.14 ± 0.03 nM | 
7 | O=C1c2c(OCOP(=O)(O)O)c(=O)ccn2N([C@@H]2c3ccccc3[Se]Cc3c2ccc(F)c3F)[C@@H]2COC3(CC3)CN12 [DS1497] | > 20000 nM | 0.37 ± 0.04 nM | 
8 | [2H][C@@]1(N2[C@@H]3COC4(CC4)CN3C(=O)c3c(OCOC(=O)OC)c(=O)ccn32)c2ccccc2[Se]Cc2c1ccc(F)c2F [DS1495] | > 20000 nM | 0.28 ± 0.03 nM | 
9 | O=C1c2c(OCOP(=O)(O)O)c(=O)ccn2N([C@@H]2c3ccccc3[Se]Cc3c2ccc(F)c3F)[C@@H]2COC3(CC3)CN12 [DS14915] |  |  | EC50 (A/WSN/33 (H1N1)): 0.00113 ± 0.00031 µM; EC50 (A/PR/8/34 (H1N1) (PR8); [6]): 0.00097 ± 0.00036 µM; EC50 ([3]; MDCK): 0.00218 ± 0.00056 µM; EC50 [4, 7]: 0.00247 ± 0.00048 µM
10 | COC(=O)OCOc1c2n(ccc1=O)N([C@@H]1c3ccccc3SCc3c1ccc(F)c3F)[C@@H]1COC3(CC3)CN1C2=O [Compound M42, reference compound] | > 20000 nM | 0.76 ± 0.04 nM | EC50 (A/WSN/33 (H1N1)): 0.00228 ± 0.00042 µM; EC50 (A/PR/8/34 (H1N1) (PR8); [6]): 0.00193 ± 0.00055 µM; EC50 ([3]; MDCK): 0.00724 ± 0.00136 µM; EC50 [4, 7]: 0.00621 ± 0.00109 µM; lung tissue pathology examination (A/PR/8/34 (H1N1) virus; [8]): clear bronchial structure, and the epithelial cells were arranged neatly with a small amount of inflammatory cell infiltration; also recorded: a small amount of epithelial cell necrosis was observed
11 | Baricitinib |  |  | CC50 (MDCK cells): > 20000 nM
12 | CCOP(=O)(OCC)OCOc1c2n(ccc1=O)N([C@@H]1c3ccccc3[Se]Cc3c1ccc(F)c3F)[C@@H]1COC3(CC3)CN1C2=O [DS1831] | > 20000 nM | 0.19 ± 0.02 nM | 
13 | C[C@@]1(N2[C@@H]3COC4(CC4)CN3C(=O)c3c(O)c(=O)ccn32)c2ccccc2[Se]Cc2c1ccc(F)c2F [DS1493] | > 20000 nM | 0.1 ± 0.01 nM | therapeutic index (TC50/EC50) [1]: higher therapeutic index
14 | O=C1c2c(O)c(=O)ccn2N([C@@H]2c3ccccc3SCc3c2ccc(F)c3F)[C@@H]2COC3(CC3)CN12 [Compound M41, reference compound] |  | 0.63 ± 0.03 nM | CC50 at 72 h ([5]; MDCK cells): > 20000 nM
15 | O=C1c2c(OP(=O)(O)O)c(=O)ccn2N([C@@H]2c3ccccc3[Se]Cc3c2ccc(F)c3F)[C@@H]2COC3(CC3)CN12 [DS14910] | > 20000 nM | 0.21 ± 0.02 nM | 
16 | COC(=O)OCOc1c2n(ccc1=O)N([C@@H]1c3ccccc3[Se]Cc3c1ccc(F)c3F)[C@@H]1COCCN1C2=O [Compound M43, reference compound] |  |  | EC50 ([3]; MDCK): 0.0113 ± 0.00253 µM; EC50 [4, 7]: 0.00839 ± 0.00175 µM
17 | O=C1c2c(OCOP3(=O)OCCCO3)c(=O)ccn2N([C@@H]2c3ccccc3[Se]Cc3c2ccc(F)c3F)[C@@H]2COC3(CC3)CN12 [DS15812] | > 20000 nM | 0.25 ± 0.03 nM | 
18 | O=C1c2c(O)c(=O)ccn2N([C@@H]2c3ccccc3[Se]Cc3c2ccc(F)c3F)[C@@H]2COC3(CC3)CN12 [DS1835] |  |  | lung tissue pathology examination (A/PR/8/34 (H1N1) virus; 1.4 mg/kg intraperitoneal injection once a day): clear bronchial structure, and the epithelial cells had complete morphology and neat arrangement; lung tissue virus titer (A/PR/8/34 (H1N1) virus; 1.4 mg/kg intraperitoneal injection once a day, right lung TCID50 5 days after infection): lowest lung tissue virus titer
19 | O=C1c2c(OCOP(=O)(OCc3ccccc3)OCc3ccccc3)c(=O)ccn2N([C@@H]2c3ccccc3[Se]Cc3c2ccc(F)c3F)[C@@H]2COC3(CC3)CN12 [DS1832] | > 20000 nM | 0.21 ± 0.03 nM | 
20 | [2H]C([2H])([2H])OC(=O)OCOc1c2n(ccc1=O)N([C@]1([2H])c3ccccc3SCc3c1ccc(F)c3F)[C@@H]1COC3(CC3)CN1C2=O [DS1838] |  | 0.52 ± 0.04 nM | CC50 at 72 h (in vitro): > 20000 nM
21 | C[C@@]1(N2[C@@H]3COC4(CC4)CN3C(=O)c3c(OP(=O)(O)O)c(=O)ccn32)c2ccccc2[Se]Cc2c1ccc(F)c2F [DS14912] | > 20000 nM | 0.17 ± 0.01 nM | 
22 | [2H]C([2H])([2H])OC(=O)OCOc1c2n(ccc1=O)N([C@@H]1c3ccccc3[Se]Cc3c1ccc(F)c3F)[C@@H]1COC3(CC3)CN1C2=O [DS1833] | > 20000 nM | 0.11 ± 0.02 nM | EC50 (A/WSN/33 (H1N1)): 0.00102 ± 0.00027 µM; EC50 (A/PR/8/34 (H1N1) (PR8); [6]): 0.00089 ± 0.00022 µM; EC50 ([3]; MDCK): 0.00277 ± 0.00075 µM; EC50 [4, 7]: 0.00338 ± 0.00067 µM; lung tissue pathology examination (A/PR/8/34 (H1N1) virus; [8]): clear bronchial structure, and the epithelial cells were arranged neatly with a small amount of inflammatory cell infiltration; lung tissue virus titers compared with M42 at the same dose (A/PR/8/34 (H1N1) virus; 2 mg/kg intragastric once a day, right lung TCID50 5 days after infection): lower
23 | COC(=O)OCOc1c2n(ccc1=O)N([C@]1(C)c3ccccc3[Se]Cc3c1ccc(F)c3F)[C@@H]1COC3(CC3)CN1C2=O [DS1496] | > 20000 nM | 0.43 ± 0.02 nM | 
24 | [2H][C@@]1(N2[C@@H]3COC4(CC4)CN3C(=O)c3c(OCOP(=O)(O)O)c(=O)ccn32)c2ccccc2[Se]Cc2c1ccc(F)c2F [DS1498] |  | 0.31 ± 0.02 nM | CC50 at 72 h [5]: > 20000 nM
25 | [2H]C([2H])([2H])OC(=O)OCOc1c2n(ccc1=O)N([C@]1([2H])c3ccccc3[Se]Cc3c1ccc(F)c3F)[C@@H]1COC3(CC3)CN1C2=O [DS1834] | > 20000 nM | 0.1 ± 0.01 nM | 
